Assay results reported in the NIST ThermoML archive (doi:10.1016/j.jct.2016.12.037).
± gives the expanded uncertainty stated by the source.

Test: xn = mol fraction of the nth substance listed
Settings: Liquid; for viscosity: Concentric cylinders viscometry

CCCC[n+]1ccn(C)c1.O=S(=O)([N-]S(=O)(=O)C(F)(F)F)C(F)(F)F + CCCCn1cc[n+](C)c1.[Cl-]
viscosity [mPa·s], 100 kPa
Settings | 293.15 K | 303.15 K | 313.15 K | 323.15 K | 333.15 K | 343.15 K
x2 = 0 | 63.41 ± 3 | 41.26 ± 2 | 28.46 ± 1.4 | 20.58 ± 0.98 | 15.47 ± 0.73 | 12 ± 0.57
x2 = 0.25 | 150.8 ± 15 | 89.81 ± 7.8 | 57.25 ± 4.4 | 38.43 ± 2.7 | 27.37 ± 1.8 | 20.16 ± 1.3
x2 = 0.5 | 489.6 ± 34 | 255.5 ± 33 | 144.8 ± 16 | 87.69 ± 8 | 57.22 ± 4.6 | 39.08 ± 2.8
x2 = 0.75 | – | 1095 ± 83 | 513 ± 40 | 265.5 ± 19 | 150.4 ± 10 | 91.4 ± 5.7

mass density [kg/m3]
Settings | x2 = 0 | x2 = 0.25 | x2 = 0.5 | x2 = 0.75
293.15 K, 100 kPa, Vibrating tube method | 1440.9 ± 3.5 | 1383.3 ± 5.4 | 1310.1 ± 4.9 | –
303.15 K, 100 kPa, Vibrating tube method | 1431.6 ± 3.5 | 1374.4 ± 5.4 | 1301.8 ± 4.9 | 1207.9 ± 4
312.3 K, 10000 kPa, Bellows volumetry | – | 1373.1 ± 6 | 1300.2 ± 5.5 | 1205.8 ± 4.4
312.3 K, 20000 kPa, Bellows volumetry | – | 1379.8 ± 6 | 1306.1 ± 5.5 | 1210.5 ± 4.4
312.3 K, 30000 kPa, Bellows volumetry | – | 1386 ± 6 | 1311.7 ± 5.5 | 1215 ± 4.4
312.3 K, 40000 kPa, Bellows volumetry | – | 1392 ± 6 | 1317 ± 5.5 | 1219.3 ± 4.4
312.3 K, 50000 kPa, Bellows volumetry | – | 1397.7 ± 6 | 1322.1 ± 5.5 | 1223.6 ± 4.4
312.3 K, 60000 kPa, Bellows volumetry | – | 1403.3 ± 6 | 1326.9 ± 5.5 | 1227.7 ± 4.4
312.3 K, 70000 kPa, Bellows volumetry | – | 1408.6 ± 6 | 1331.6 ± 5.6 | 1231.6 ± 4.4
312.3 K, 80000 kPa, Bellows volumetry | – | 1413.7 ± 6 | 1336.2 ± 5.6 | 1235.5 ± 4.4
312.3 K, 90000 kPa, Bellows volumetry | – | 1418.5 ± 6 | 1340.5 ± 5.6 | 1239.2 ± 4.4
312.3 K, 100000 kPa, Bellows volumetry | – | 1423.4 ± 6 | 1344.8 ± 5.6 | 1242.8 ± 4.4
312.3 K, 110000 kPa, Bellows volumetry | – | 1428.1 ± 6 | 1349.1 ± 5.6 | 1246.4 ± 4.4
312.3 K, 120000 kPa, Bellows volumetry | – | 1432.6 ± 6 | 1353.1 ± 5.6 | 1249.9 ± 4.4
312.3 K, 130000 kPa, Bellows volumetry | – | 1437.1 ± 6 | 1357.1 ± 5.6 | 1253.3 ± 4.4
312.3 K, 140000 kPa, Bellows volumetry | – | 1441.3 ± 6 | 1360.9 ± 5.6 | 1256.6 ± 4.4
312.3 K, 150000 kPa, Bellows volumetry | – | 1445.6 ± 6 | 1364.7 ± 5.6 | 1260 ± 4.4
312.3 K, 160000 kPa, Bellows volumetry | – | 1449.7 ± 6 | 1368.4 ± 5.6 | 1263.1 ± 4.4
312.3 K, 170000 kPa, Bellows volumetry | – | 1453.8 ± 6 | 1372.2 ± 5.6 | 1266.3 ± 4.4
312.3 K, 180000 kPa, Bellows volumetry | – | 1457.7 ± 6 | 1375.8 ± 5.6 | 1269.4 ± 4.4
312.3 K, 190000 kPa, Bellows volumetry | – | 1461.7 ± 6.1 | 1379.3 ± 5.6 | 1272.4 ± 4.4
312.3 K, 200000 kPa, Bellows volumetry | – | 1465.4 ± 6.1 | 1382.7 ± 5.6 | 1275.5 ± 4.4
313.15 K, 100 kPa, Vibrating tube method | 1422.1 ± 3.5 | 1365.6 ± 5.4 | 1293.9 ± 4.9 | 1200.6 ± 4
323.15 K, 100 kPa, Vibrating tube method | 1412.6 ± 3.5 | 1356.8 ± 5.3 | 1286 ± 4.9 | 1193.6 ± 4
331.8 K, 10000 kPa, Bellows volumetry | – | 1356.2 ± 5.9 | 1285.2 ± 5.5 | 1192.4 ± 4.3
331.8 K, 20000 kPa, Bellows volumetry | – | 1363.2 ± 5.9 | 1291.3 ± 5.5 | 1197.3 ± 4.3
331.8 K, 30000 kPa, Bellows volumetry | – | 1369.9 ± 6 | 1297.1 ± 5.5 | 1202.1 ± 4.4
331.8 K, 40000 kPa, Bellows volumetry | – | 1376.2 ± 6 | 1302.7 ± 5.5 | 1206.7 ± 4.4
331.8 K, 50000 kPa, Bellows volumetry | – | 1382.2 ± 6 | 1307.9 ± 5.5 | 1211.1 ± 4.4
331.8 K, 60000 kPa, Bellows volumetry | – | 1388 ± 6 | 1313 ± 5.5 | 1215.5 ± 4.4
331.8 K, 70000 kPa, Bellows volumetry | – | 1393.5 ± 6 | 1318 ± 5.5 | 1219.5 ± 4.4
331.8 K, 80000 kPa, Bellows volumetry | – | 1398.9 ± 6 | 1322.8 ± 5.5 | 1223.6 ± 4.4
331.8 K, 90000 kPa, Bellows volumetry | – | 1404 ± 6 | 1327.2 ± 5.5 | 1227.4 ± 4.4
331.8 K, 100000 kPa, Bellows volumetry | – | 1408.9 ± 6 | 1331.6 ± 5.6 | 1231.2 ± 4.4
331.8 K, 110000 kPa, Bellows volumetry | – | 1413.9 ± 6 | 1336.1 ± 5.6 | 1235 ± 4.4
331.8 K, 120000 kPa, Bellows volumetry | – | 1418.5 ± 6 | 1340.4 ± 5.6 | 1238.5 ± 4.4
331.8 K, 130000 kPa, Bellows volumetry | – | 1423.2 ± 6 | 1344.4 ± 5.6 | 1242 ± 4.4
331.8 K, 140000 kPa, Bellows volumetry | – | 1427.6 ± 6 | 1348.5 ± 5.6 | 1245.4 ± 4.4
331.8 K, 150000 kPa, Bellows volumetry | – | 1432 ± 6 | 1352.3 ± 5.6 | 1248.7 ± 4.4
331.8 K, 160000 kPa, Bellows volumetry | – | 1436.3 ± 6 | 1356.2 ± 5.6 | 1252.1 ± 4.4
331.8 K, 170000 kPa, Bellows volumetry | – | 1440.5 ± 6 | 1359.9 ± 5.6 | 1255.3 ± 4.4
331.8 K, 180000 kPa, Bellows volumetry | – | 1444.5 ± 6 | 1363.8 ± 5.6 | 1258.5 ± 4.4
331.8 K, 190000 kPa, Bellows volumetry | – | 1448.5 ± 6 | 1367.3 ± 5.6 | 1261.6 ± 4.4
331.8 K, 200000 kPa, Bellows volumetry | – | 1452.6 ± 6 | 1371 ± 5.6 | 1264.7 ± 4.4
333.15 K, 100 kPa, Vibrating tube method | 1403.4 ± 3.5 | 1348.2 ± 5.3 | 1278.3 ± 4.9 | 1186.8 ± 4
343.15 K, 100 kPa, Vibrating tube method | 1394 ± 3.5 | 1339.6 ± 5.3 | 1270.6 ± 4.9 | 1180.2 ± 4
351.9 K, 10000 kPa, Bellows volumetry | – | 1339.5 ± 5.9 | 1270.2 ± 5.5 | 1179 ± 4.3
351.9 K, 20000 kPa, Bellows volumetry | – | 1346.9 ± 5.9 | 1276.5 ± 5.5 | 1184.3 ± 4.3
351.9 K, 30000 kPa, Bellows volumetry | – | 1354 ± 5.9 | 1282.7 ± 5.5 | 1189.3 ± 4.3
351.9 K, 40000 kPa, Bellows volumetry | – | 1360.6 ± 5.9 | 1288.5 ± 5.5 | 1194.1 ± 4.3
351.9 K, 50000 kPa, Bellows volumetry | – | 1366.9 ± 5.9 | 1294.1 ± 5.5 | 1198.8 ± 4.3
351.9 K, 60000 kPa, Bellows volumetry | – | 1373 ± 6 | 1299.5 ± 5.5 | 1203.2 ± 4.4
351.9 K, 70000 kPa, Bellows volumetry | – | 1378.9 ± 6 | – | –
